Read-outs that look alike come from different tables or passages of the source.
Tests used:
corn = assay: Crop yield after cornfield application; type: in vivo; conditions: nitrogen 160 lbs/acre for ammonia
Source text: Nitrate leaching after cornfield applications of 0.5% and 1% heterogeneous calcium cyanamide core/urea shell granules was also followed.

[1] = Aerobic dissolution activity, visual observation in open glasses of water; type: physicochemical; set-up: White grainy deposit / White rhombic froth / Reactivity/floating / Calcium settlements / Meniscus (white): scale not given here; conditions: for Calcium settlements / Evaporation / Meniscus (white) / Particles dissolved / Reactivity/floating / White grainy deposit / White rhombic froth: open air; for pH: open air water solutions
Procedure: Calcium cyanamide fines, homogeneous calcium cyanamide granules, heterogeneous calcium cyanamide/urea granules, calcium cyanamide granules, and urea were added to equal amounts of water in separate glasses and observed over time. Table 12 is a summary of those visual observations and highlights the vast differences between the aerobic dissolution properties and the chemical reactions over time of open air water solutions of CaNCN granules (1), CaNCN fines (2), homogeneous CaNCN/urea granules formed by melting together CaNCN fines and urea (3), heterogeneous CaNCN/urea granules with a calcium cyanamide core and a urea shell (4), and urea (5).

[2] = test system: microscopic eelworms (nematodes); conditions: 100 lbs/acre, hydrolyzed + urease, In vitro; cited from earlier work
arginine production = conditions: cited from earlier work; for % Relative Arginine Increase: published data, CaNO3 as baseline
[3] = test system: microscopic soil eelworms (nematodes); assay: Strawberry bed drip irrigation test against methyl bromide, soil eelworms at 12 inch depth; type: in vivo; conditions: methyl bromide in pre-wetted beds
Source text: As a result of the before mentioned strawberry bed weed responses, the 70/30 composition was compared directly with methyl bromide (MB) during the California Strawberry Commission's annual testing for alternatives to the ozone negative pesticide, which is scheduled to be 70% banned by 2003. Our chosen objective was to replace pre-banded “slow release” nitrogen with stabilized urea/calcium cyanamide compositions at a similar cost per acre and see if we could attain reduction of weeds and diseases similar to methyl bromide.
The urea/calcium cyanamide composition was applied to pre-wetted and preformed beds through drip irrigation tubes, typically 2 of which are laid inside of where two rows of berry plants will be planted on the outside bed edges. Applications of 100 lbs/acre were compared where the calcium cyanamide composition was applied over 1 hour and 2 hour periods to vary the depth and width of its distribution.
Soil samples, taken at a depth of 12″ in bed centers, were sent for analysis by the Commission. […] It is assumed that the pre-wetting of soil required for bed shaping, caused restricted movement of the methyl bromide gas through the soil.

Phytophthora = conditions: cited from earlier work
Verticillium = conditions: cited from earlier work
weeds = conditions: cited from earlier work
[4] = test system: microscopic eelworms (nematodes); assay: Inventor Study, WSU: nematode reduction in vitro
Source text: For comparison, results of some prior art studies using dry CaNCN application, liquid molecular cyanamide applications, and the results of an experiment using dicyandiamide are also included in Table 10.

Coliform = Coliform numbers in parlor wash manure with 0.2% CaNCN; type: cell-based; conditions: below about 0.2% by weight in manure, within 24-120 hrs
lettuce seed = assay: Seed emergence in band drenched lettuce and broccoli plots; type: in vivo; conditions: aqueous composition of calcium cyanamide alone as a drench
Procedure: Yet another test was conducted on lettuce and broccoli plots. […] The rates expressed relevant to strawberry bands were 8 lbs and 16 lbs of nitrogen per acre. […] However, where the drench was allowed to dry for several days before sprinkling, the lettuce seed emergence was reduced 100%. […]

[5] = test system: microscopic eelworms (nematodes); conditions: not hydrolyzed, cited from earlier work
[6] = test system: microscopic eelworms (nematodes); conditions: 600-1200 lbs/acre, not hydrolyzed, Field Soil, dry; cited from earlier work
[7] = about 25° C.; cited from earlier work
[8] = test system: Meloidogyne chitwoodi J2 larvae; assay: Meloidogyne chitwoodi J2 larvae killed after application in irrigation water; type: in vivo
Source text: This example was done under consultation with Washington State University. Agricultural plots were identified in Washington State.

[9] = shank injected and tarped, 350 lbs/acre
[10] = dry incorporated, 1,000 lbs./acre

SMILES	Calcium settlements ([1]; 1 hour)	Evaporation ([1]; 1 hour)	Meniscus (white) ([1]; 1 hour)	Particles dissolved ([1]; 1 hour)	Reactivity/floating ([1]; 1 hour)	White grainy deposit ([1]; 1 hour)	White rhombic froth ([1]; 1 hour)	Calcium settlements ([1]; 24 hours)	Evaporation ([1]; 24 hours)	Meniscus (white) ([1]; 24 hours)	Particles dissolved ([1]; 24 hours)	Reactivity/floating ([1]; 24 hours)	White grainy deposit ([1]; 24 hours)	White rhombic froth ([1]; 24 hours)	Calcium settlements ([1]; 30 days)	Evaporation ([1]; 30 days)	Meniscus (white) ([1]; 30 days)	Particles dissolved ([1]; 30 days)	Reactivity/floating ([1]; 30 days)	White grainy deposit ([1]; 30 days)	further results
N [Ammonia]																					Yield (corn; Field 1, 120 lbs/acre for granules): 180 bushel/acre; Yield (corn; Field 2, 120 lbs/acre for granule): 177 bushel/acre
NC(N)=O [Urea, urea, reference compound]	0	0	0	0	0	0	0	0	0	0	9	0	0	0	0	4	0	10	0	0	White rhombic froth ([1]; 30 days): 0; pH [1]: (5)Urea(8); Nematode Reduction [2]: 100%; % Relative Arginine Increase (arginine production): 69%
CBr [methyl bromide, reference compound]																					reduction of microscopic soil eelworms (nematodes) [3]: completely ineffective; reduction of Phytophthora (Phytophthora; [9]): 100%; reduction of Verticillium (Verticillium; [9]): 73%; weeds reduced (weeds; shank injected followed by tarping, 350 lbs/acre): 85%
N#CN=C(N)N [Dicyan-Diamide, dicyandiamide, reference compound]																					Nematode Reduction ([4]; 102 lbs/acre in distilled water, pH = 8, In vitro): 0%
[Ca+2].[N-]=C=[N-] [(2)Fines, calcium cyanamide]	0	0	0	2	1	0	0	10	0	8	7	10	0	0	10	5	9	8	10	6	White rhombic froth ([1]; 30 days): 0; pH [1]: (2)Fines(12)
[Ca+2].[N-]=C=[N-] [CaNCN, calcium cyanamide]																					reductions in coliform bacteria (Coliform): 99.999%; Nematode Reduction ([4]; 9 lbs/acre in distilled water, hydrolyzed, pH = 12.6, In vitro): 100%; Nematode Reduction ([4]; 29 lbs/acre in tap water, hydrolyzed, pH = 10, In vitro): 0%; lettuce seed emergence reductions (lettuce seed; 5 lbs CaNCN N/acre): 85%; lettuce seed emergence reductions (lettuce seed; 10 lbs CaNCN N/acre): 100%; Nematode Reduction ([5]; 1200-2400 equiv. lbs/acre, Wet pot soil): 41-66%; Nematode Reduction ([5]; 1200-2400 lbs/acre, Dry): 4-8%; Nematode Reduction ([5]; 1200-2400 lbs/acre, Wet): 42-54%; Nematode Reduction [6]: 0%; % Relative Arginine Increase (arginine production): 639%; reduction of Phytophthora (Phytophthora; [10]): 0%; reduction of Verticillium (Verticillium; [10]): 8%; weeds reduced (weeds; dry surface incorporation of 1000 lbs/acre followed by 0.5 acre inch sprinkler water): 95%
N#CN [H2NCN liquid, molecular cyanamide]																					Nematode Reduction ([5]; 112 lbs/acre, In vitro): 100%; stimulation of arginine production relative to urea (arginine production; in plants): 20 times; acid dissociation constant [7]: about 5.42×10^−11
[Na+].[OH-] [NaOH, sodium hydroxide]																					Final pH ([8]; 35 lbs/acre at 1/2 inch depth): 10.6; J2 nema - % killed ([8]; 35 lbs/acre at 1/2 inch depth): 98.6%; Final pH ([8]; 70 lbs/acre at 1/2 inch depth): 11.4; J2 nema - % killed ([8]; 70 lbs/acre at 1/2 inch depth): 100%; Final pH ([8]; 105 lbs/acre at 1/2 inch depth): 11.7; J2 nema - % killed ([8]; 105 lbs/acre at 1/2 inch depth): 100%; Nematode Reduction ([4]; 35 lbs/acre in tap water, pH = 10, In vitro): 99%
[Ca+2].[N-]=C=[N-] [(1)Granules, calcium cyanamide]	0	0	0	0	0	0	0	0	0	0	2	2	0	0	1	5	1	2	4	2	White rhombic froth ([1]; 30 days): 0; pH [1]: (1)Granules(12)
O=[N+]([O-])[O-].O=[N+]([O-])[O-].[Ca+2] [CaNO3-baseline, calcium nitrate]																					% Relative Arginine Increase (arginine production): 0%

From patent publication US7785388B2, “Method for producing stabilized nitrogen compositions” (priority 1999, dated 2010)
